Results as given in patent publication US9771378B2 (Denali Therapeutics, Inc., priority 2014, dated 2017).

system: Aβ42 (human neuroglioma H4 cells expressing human wild type APP751); test: In vitro cell screening assay with sandwich ELISA quantification of Aβ42 peptide; assay type: cell-based; settings: H4 cells stably expressing human wild type APP751; Pro293 chemically defined medium; compounds 0.003-10 μM; incubated overnight (16-18 h); supernatant Aβ42 by sandwich ELISA; normalized to DMSO and DAPT; read-out: Aβ42 H4 Prot Fre IC50
In short: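 Aβ42 in supernatants was quantified by sandwich ELISA with C-terminal-specific capture and 4G8-HRP detection, absorbance at 450 nm. Stable APP751-expressing human H4 cells received compound at 0.003-10 μM (0.33% DMSO) overnight (16-18 h). IC50 was derived from percent-of-DMSO-control data by nonlinear variable-slope fit.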

Point of comparison: `Cc1cn(-c2ccc(Nc3ncc4c(n3)N(C)C(c3cc(F)c(F)cc3Cl)CO4)cc2F)cn1` (single isomer, unassigned; (-)) [Example 169B], IC50 2260 nM. Against it:
- COc1cc(Nc2ncc3c(n2)N(C)C(c2ccc(C(F)(F)F)cc2C(F)(F)F)CO3)ccc1-n1cnc(C)c1 (single isomer, unassigned; (-)) [Example 168A] — 4-fold lower, 566 nM
- COc1cc(Nc2ncc3c(n2)N(C)C(c2ccccc2C)CO3)cnc1-n1cnc(C)c1 (single isomer, unassigned; (-)) [Example 171B] — 34-fold lower, 67 nM
- COc1cc(Nc2ncc3c(n2)N(C)C(CC(F)(F)F)CO3)ccc1-n1cnc(C)c1 (single isomer, unassigned; (-)) [Example 172A] — 11-fold lower, 207 nM
- Cc1cn(-c2ccc(Nc3ncc4c(n3)N(C)C(c3cc(C(F)(F)F)ccc3Cl)CO4)cc2F)cn1 (single isomer, unassigned; (-)) [Example 173B] — 2.7-fold lower, 831 nM
- COc1cc(Cl)c(C2COc3cnc(Nc4ccc(-n5cnc(C)c5)c(OC)c4)nc3N2C)cc1Cl (single isomer, unassigned; (-)) [Example 174A] — 15-fold lower, 150 nM
- COc1ccc(C)c(C2COc3cnc(Nc4ccc(-n5cnc(C)c5)c(OC)c4)nc3N2C)c1 (single isomer, unassigned; (-)) [Example 175B] — 24-fold lower, 95 nM
- COc1nc(Nc2ncc3c(n2)N(C)C(c2cc(F)cc(F)c2)CO3)ccc1-n1cnc(C)c1 (single isomer, unassigned; (-)) [Example 179A] — higher, > 3000 nM
- COc1nc(Nc2ncc3c(n2)N(C)C(c2ccccc2C)CO3)ccc1-n1cnc(C)c1 (single isomer, unassigned; (-)) [Example 180A] — higher, > 3000 nM
- COc1cc(Nc2ncc3c(n2)N(C)C(c2cc(F)c(F)cc2F)CO3)cnc1-n1cnc(C)c1 (single isomer, unassigned; (-)) [Example 181A] — 250-fold lower, 9 nM
- COc1cc(Nc2ncc3c(n2)N(C)C(c2cc(F)c(F)c(F)c2)CO3)cnc1-n1cnc(C)c1 (single isomer, unassigned; (-)) [Example 182B] — 13-fold lower, 176 nM
- COc1nc(Nc2ncc3c(n2)N(C)C(c2cc(F)cc(F)c2)CO3)ccc1-c1ccnc(C)n1 (single isomer, unassigned; (-)) [Example 183B] — higher, > 3000 nM
- COc1nc(Nc2ncc3c(n2)N(C)C(c2cc(F)cc(F)c2)CO3)ccc1-c1cnn(C)c1 (single isomer, unassigned; (-)) [Example 184A] — higher, > 3000 nM
- COc1cc(Nc2ncc3c(n2)N(C)C(C)CO3)cnc1-n1cnc(C)c1 (single isomer, unassigned; (-)) [Example 185B] — 4.2-fold lower, 540 nM
- COc1cc(Nc2ncc3c(n2)N(C)C(c2ccc(F)cc2F)CO3)cnc1-n1cnc(C)c1 (single isomer, unassigned; (-)) [Example 186B] — 6.9-fold lower, 328 nM
- COc1cc(Nc2ncc3c(n2)N(C)C(C(F)(F)F)CO3)ccc1-n1cnc(C)c1 (single isomer, unassigned; (-)) [Example 187B] — 68-fold lower, 33 nM
- COc1nc(Nc2ncc3c(n2)N(C)C(c2cc(F)c(F)c(F)c2)CO3)ccc1-n1cnc(C)c1 (single isomer, unassigned; (-)) [Example 188A] — higher, > 3000 nM
- COc1cc(Nc2ncc3c(n2)N(C)C(c2cc(F)cc(F)c2)CO3)cnc1-n1cnc(C)c1 (single isomer, unassigned; (-)) [Example 189B] — 3.5-fold lower, 655 nM
- Cc1cn(-c2ccc(Nc3ncc4c(n3)N(C)C(c3cc(F)cc(F)c3)CO4)nc2C#N)cn1 (single isomer, unassigned; (-)) [Example 192A, (−)-6-((7-(3,5-difluorophenyl)-8-methyl-7,8-dihydro-6H-pyrimido [5,4-b] [1, 4]oxazin-2-yl)amino)-3-(4-methyl-1H-imidazol-1-yl) picolinonitrile] — higher, > 3000 nM
- COc1cc(Nc2ncc3c(n2)N(C)C(C(F)(F)F)CO3)cnc1-n1cnc(C)c1 (single isomer, unassigned; (-)) [Example 193B] — 65-fold lower, 35 nM
- Cc1cn(-c2ccc(Nc3ncc4c(n3)N(C)C(C)CO4)cn2)cn1 (single isomer, unassigned; (-)) [Example 194B] — higher, > 3000 nM
- COc1ccc(C2COc3cnc(Nc4ccc(-n5cnc(C)c5)c(OC)c4)nc3N2C)c(C)c1 (single isomer, unassigned; (-)) [Example 199B] — 24-fold lower, 95 nM
- COc1cc(Nc2ncc3c(n2)N(C)C(C)CO3)ccc1-n1cnc(Cl)c1 (single isomer, unassigned; (-)) [Example 202A] — 14-fold lower, 167 nM
- Cc1cn(-c2ccc(Nc3ncc4c(n3)N(C)C(c3cc(F)cc(F)c3)CO4)cc2C#N)cn1 (single isomer, unassigned; (-)) [Example 203B, (−)-5-((7-(3,5-difluorophenyl)-8-methyl-7,8-dihydro-6H-pyrimido [5,4-b] [1, 4]oxazin-2-yl)amino)-2-(4-methyl-1H-imidazol-1-yl) benzonitrile] — 11-fold lower, 210 nM
- COc1cc(Nc2ncc3c(n2)N(C)C(c2cc(F)cc(F)c2)CO3)ccc1-n1cnc(Cl)c1 (single isomer, unassigned; (-)) [Example 204A] — 5.2-fold lower, 433 nM
- Cc1cn(-c2ccc(Nc3ncc4c(n3)N(C)C(C)CO4)cc2C#N)cn1 (single isomer, unassigned; (-)) [Example 205B, (−)-5-((7,8-dimethyl-7,8-dihydro-6H-pyrimido [5,4-b] [1, 4]oxazin-2-yl)amino)-2-(4-methyl-1H-imidazol-1-yl) benzonitrile] — 8.7-fold lower, 259 nM
- COc1cc(Nc2ncc3c(n2)N(C)C(c2cc(F)cc(F)c2)CO3)cnc1-n1cnc(C(F)(F)F)c1 (single isomer, unassigned; (-)) [Example 206B] — 3.2-fold lower, 704 nM
- COc1ccc(C)c(C2COc3cnc(Nc4cnc(-n5cnc(C)c5)c(OC)c4)nc3N2C)c1 (single isomer, unassigned; (-)) [Example 207B] — 24-fold lower, 96 nM
- COc1ccc(Cl)c(C2COc3cnc(Nc4cnc(-n5cnc(C)c5)c(OC)c4)nc3N2C)c1 (single isomer, unassigned; (-)) [Example 208B] — 17-fold lower, 136 nM
- COc1ccc(C2COc3cnc(Nc4cnc(-n5cnc(C)c5)c(OC)c4)nc3N2C)c(Cl)c1 (single isomer, unassigned; (-)) [Example 209B] — 41-fold lower, 55 nM
- Cc1cn(-c2ncc(Nc3ncc4c(n3)N(C)C(c3cc(F)cc(F)c3)CO4)cc2Cl)cn1 (single isomer, unassigned; (-)) [Example 210B] — within 1.5-fold, 2340 nM
- COc1cc(Nc2ncc3c(n2)N(C)C(c2cc(F)cc(F)c2)CO3)cnc1-n1cnc(C#N)c1 (single isomer, unassigned; (-)) [Example 211B, (−)-1-(5-((7-(3,5-difluorophenyl)-8-methyl-7,8-dihydro-6H-pyrimido [5,4-b] [1, 4]oxazin-2-yl)amino)-3-methoxypyridin-2-yl)-1H-imidazole-4-carbonitrile] — higher, > 3000 nM
- COc1cc(Nc2ncc3c(n2)N(C)C(C2CC(F)(F)C2)CO3)ccc1-n1cnc(C)c1 (single isomer, unassigned; (-)) [Example 212A] — 6.5-fold lower, 348 nM
- Cc1cn(-c2ccc(Nc3ncc4c(n3)N(C)C(C)CO4)cc2OC(F)(F)F)cn1 (single isomer, unassigned; (-)) [Example 213A] — higher, > 3000 nM
- Cc1cn(-c2ccc(Nc3ncc4c(n3)N(C)C(C)CO4)cc2C(F)F)cn1 (single isomer, unassigned; (-)) [Example 214B] — the same, 2260 nM
- COc1ccc(C2COc3cnc(Nc4cnc(-n5cnc(C)c5)c(OC)c4)nc3N2C)c(C)c1 (single isomer, unassigned; (-)) [Example 215B] — 24-fold lower, 96 nM
- COc1cc(Nc2ncc3c(n2)N(C)C(C2CCC(F)(F)CC2)CO3)ccc1-n1cnc(C)c1 (single isomer, unassigned; (-)) [Example 216A] — 7.1-fold lower, 320 nM
- COc1cc(Nc2ncc3c(n2)N(C)C(C2CC(F)(F)C2)CO3)cnc1-n1cnc(C)c1 (single isomer, unassigned; (-)) [Example 219B] — 5.7-fold lower, 398 nM
- COc1cc(Nc2ncc3c(n2)N(C)C(c2cc(F)cc(F)c2)CO3)ncc1-n1cnc(C)c1 (single isomer, unassigned; (-)) [Example 220A] — higher, > 3000 nM
- COc1cc(Nc2ncc3c(n2)N(C)C(C2CCC(F)(F)CC2)CO3)cnc1-n1cnc(C)c1 (single isomer, unassigned; (-)) [Example 221B] — 7-fold lower, 325 nM
- Cc1cn(-c2ccc(Nc3ncc4c(n3)N(C)C(c3cc(F)cc(F)c3)CO4)cc2C(F)F)cn1 (single isomer, unassigned; (-)) [Example 222B] — higher, > 3000 nM
- Cc1cn(-c2ccc(Nc3ncc4c(n3)N(C)C(c3cc(F)cc(F)c3)CO4)cc2OC(F)(F)F)cn1 (single isomer, unassigned; (-)) [Example 223A] — higher, > 3000 nM
- CN1c2nc(Nc3ccc(C#N)cc3)ncc2OCC1C(F)(F)F (single isomer, unassigned; (-)) [Example 226B, (−)-4-((8-methyl-7-(trifluoromethyl)-7,8-dihydro-6H-pyrimido [5,4-b] [1, 4]oxazin-2-yl)amino) benzonitrile] — higher, > 3000 nM
- COc1cc(Nc2ncc3c(n2)N(C)C(C(F)(F)F)CO3)ccc1-n1cnc(Cl)c1 (single isomer, unassigned; (-)) [Example 228B] — 160-fold lower, 14 nM
- Cc1cn(-c2ncc(Nc3ncc4c(n3)N(C)C(C(F)(F)F)CO4)cc2Cl)cn1 (single isomer, unassigned; (-)) [Example 229A] — 11-fold lower, 215 nM
- COc1cc(Nc2ncc3c(n2)N(C)C(C(F)(F)F)CO3)ccc1C#N (single isomer, unassigned; (-)) [Example 230B, (−)-2-methoxy-4-((8-methyl-7-(trifluoromethyl)-7,8-dihydro-6H-pyrimido [5,4-b] [1, 4]oxazin-2-yl)amino) benzonitrile] — 3.2-fold lower, 717 nM
- COc1cc(Nc2ncc3c(n2)N(C)C(C2CCC(F)(F)CC2)CO3)cnc1-c1cnn(C)c1 (single isomer, unassigned; (-)) [Example 231B] — higher, > 3000 nM
